According to patent publication US7981903B2, “2-[2-{phenylamino}-1H-pyrrolo[2,3-D]pyrimidin-4-yl)amino] benzamide derivatives as IGF-1R inhibitors for the treatment of cancer” (GlaxoSmithKline LLC, priority 2007, dated 2011):
Where “and” joins values, the source holds several entries; their conditions need not be identical. Identical values can stand only once.

How the values were obtained:
[1] = target: T1, human IGF1R (hIGF1R) (Homo sapiens, UniProt P08069); experiment: TR-FRET kinase assay of purified hIGF1R; format: biochemical; details: activated hIGF1R 0.5 nM, 10 μM ATP, values given as pIC50 category, read-out: IGF-1R pIC50 (converted)
T1 construct: containing amino acid residues 957-1367 of human IGF1R; made in house; host or cells: Sf9 cells (baculovirus)
Protocol: (§1) Time Resolved Fluorescence Resonance Energy Transfer (TR-FRET) assays were carried out on the exemplified compounds as follows:
(§2) Purity is determined by HPLC. The calculated molecular mass of the peptide is 2216 dalton. Tyrosine phosphorylation by human IGF1R (hIGF1R) or human IR (hIR) occurs as indicated (Y*) in the peptide sequence described. Solid peptide sample is dissolved to approximately 1 mM in DMSO, aliquoted, and stored at −20° C. until use. True peptide concentration is determined by amino acid analysis.
hIGF1R: GST-rTEV-IGF-1R(957-1367) containing amino acid residues 957-1367 of human IGF1R (as annotated by National Center for Biotechnology Information (NCBI) accession number NP_000866) is purified from a baculovirus expression system in Sf9 cells using Glutathione Sepharose 4FF column chromatography followed by Sephadex-200 size exclusion column chromatography. […] Samples, in 25 mM Tris-HCl, 250 mM NaCl, 5% glycerol, 1 mM DTT, pH 7.5, are stored at −80° C. until use.
(§3) hIGF1R: Activation of GST-rTEV-IGF-1R(957-1367) is achieved by a 4 minute incubation of hIGF1R (2.7 μM final) with 2 mM ATP in 50 mM HEPES, 20 mM MgCL2, 0.1 mg/ml BSA, at room temperature. Autophosphorylation is stopped by addition of EDTA (to 100 mM final). Aliquoted samples are flash frozen in liquid nitrogen and stored at −80° C. until use.
(§4) Assays are performed in 384-well (Greiner, Catalog No. 784076) microtiter plates. Reaction buffer (50 mM HEPES buffer, pH 7.5; 10 mM MgCL2; 3 mM DTT; 1 mM CHAPS; 0.1 mg/ml BSA) for peptide phosphorylation (10 μl volume) contained, in final concentrations, 500 nM biotinylated peptide substrate; 10 μM ATP; and purified, activated hIGF1R or hIR (0.5 nM). Compounds, titrated in DMSO, are evaluated at eleven concentrations ranging from 50 μM to 0.2 nM. […] Reactions are incubated for 1 hour at room temperature and are stopped by a 5 μl addition of EDTA (to 33 mM). A further addition of 5 μl detection reagents (for final 7 nM Streptavidin-APC (Perkin Elmer #CR^130-150), 1 nM Europium-labeled anti-phosphotyrosine monoclonal antibody (PerkinElmer #AD0067), added in reaction buffer (without DTT), is required for signal generation. After 30 minutes, signal is read on PerkinElmer Viewlux microplate imager or Wallac Victor fluorometer.
(§5) The data for compound concentration responses were plotted as % Inhibition, calculated with the data reduction formula 100*(1-[(U1-C2)/(C1-C2)]), versus concentration of compound, where • U is the unknown value, • C1 is the average control value obtained for DMSO only, and • C2 is the average control value obtained for reactions stopped with EDTA at • t=0.
(§6) Data were fitted to the curve described by: y=((Vmax*x)/(K+x)) where • Vmax is the upper asymptote and • K is the IC50.

[2] = target: T2, human IR (hIR) (Homo sapiens, UniProt P06213); experiment: TR-FRET kinase assay of purified hIR; format: biochemical; details: activated hIR 0.5 nM, 10 μM ATP, values given as pIC50 category
T2 construct: containing amino acid residues 979-1382 of human IR; made in house; host or cells: Sf9 cells (baculovirus), same process as hIGF1R
Protocol: as §1, §2
hIR: GST-rTEV-IR(979-1382) containing amino acid residues 979-1382 of human IR (as annotated by NCBI accession number NP_000199) is expressed and purified by the same process as hIGF1R. […] Samples, in 25 mM Tris-HCl, 250 mM NaCl, 5% glycerol, 1 mM DTT, pH 7.5, are stored at −80° C. until use.
as §3, with “hIR:” for “hIGF1R:”, “5” for “4”, “hIR” for “hIGF1R”, “100” for “50”, “10” for “20”
as §4, §5, §6

[3] = target: T3, NIH-3T3 cells overexpressing human IGF-1R (Homo sapiens, UniProt P08069); experiment: IGF-1R cellular autophosphorylation (DELFIA); format: cell-based
T3 construct: expressed in transfected cells; host or cells: NIH-3T3 (mouse fibroblasts)
Protocol: NIH-3T3 cells overexpressing human IGF-1R or IR were plated in 96-well plates (10,000 cells/well) in culture media containing 10% fetal bovine serum and incubated at 37° C. in a 5% CO2 incubator. Twenty four hours post-plating, cells were treated with different concentrations of test compounds ranging from 30 uM to 1.5 nM. Two hours after compound addition, cells were stimulated with either human IGF-1 (30 ng/ml) or insulin (3 ug/ml) for 15 minutes. Cell lysates are analyzed for phosphorylated receptors using dissociation enhanced lanthanide fluor-immuno assay (DELFIA) with anti-IGF-1R (MAB391, R&D Systems, Minneapolis, Minn.) or anti-IRβ (sc-711, Santa Cruz Biotechnology, Santa Cruz, Calif.) capture antibody and europium-labeled anti-pTyr antibody (Eu-N1 PT66, Perkin Elmer, Waltham, Mass.) for detection. The fluorescence signal for cells treated with compounds was expressed as percent relative to 100% stimulation (IGF-1 or insulin stimulated signal).

[4] = target: ALK (Homo sapiens, UniProt Q9UM73); experiment: ALK enzyme assay (HTRF); format: biochemical; details: 0.25 nM ALK, 15.0 μM ATP, values given as pIC50 category
Protocol: The method measures the ability of the isolated enzyme to catalyse the transfer of the gamma-phosphate from ATP onto the tyrosine residue of a biotinylated synthetic peptide. The extent of tyrosine phosphorylation was measured using an anti-phosphotyrosine antibody, and quantified by homogenous time-resolved fluorescence (HTRF) assay purchased from CisBio (62TK0PEJ).
Reactions were performed in black 384-well polystyrene low volume plates in a final volume of 5 μl.
The reactions were then started by adding the substrate mix. The reactions were allowed to proceed for 120 minutes at 20° C. The reactions were then terminated by the addition of 5 μl HTRF detection mix to each well. The final concentrations of the detection reagents were: 50 mM HEPES (pH7.0); 0.1% BSA; 0.8 M KF; 20 mM EDTA; 1 mM CHAPS; TK-antibody Europium Cryptate; and 41 nM streptavidin-XL665. Assay plates were left unsealed, stacked and incubated at 20° for 60 minutes. Quantification of activity was achieved by counting in an Envision Counter (PerkinElmer).
Compounds under analysis were dissolved in Me2SO to 1.0 mM and serially diluted 1 to 3 with Me2SO through twelve dilutions. 0.05 μl of each concentration was transferred to the corresponding well of an assay plate. This creates a final compound concentration range from 0.00017 to 10 μM.
The data for dose responses were plotted as % Inhibition calculated with the data reduction formula 100*(1-(U1-C2)/(C1-C2)) versus concentration of compound where U is the unknown value, C1 is the average control value obtained for 1% DMSO, and C2 is the average control value obtained for 0.1 M EDTA. Data were fitted with a curve described by:
[formula] where A is the minimum y, B is the maximum y concentration [M], D is the slope factor, and x is the log10 of the compound.

T3 sequence (P08069 31-1367): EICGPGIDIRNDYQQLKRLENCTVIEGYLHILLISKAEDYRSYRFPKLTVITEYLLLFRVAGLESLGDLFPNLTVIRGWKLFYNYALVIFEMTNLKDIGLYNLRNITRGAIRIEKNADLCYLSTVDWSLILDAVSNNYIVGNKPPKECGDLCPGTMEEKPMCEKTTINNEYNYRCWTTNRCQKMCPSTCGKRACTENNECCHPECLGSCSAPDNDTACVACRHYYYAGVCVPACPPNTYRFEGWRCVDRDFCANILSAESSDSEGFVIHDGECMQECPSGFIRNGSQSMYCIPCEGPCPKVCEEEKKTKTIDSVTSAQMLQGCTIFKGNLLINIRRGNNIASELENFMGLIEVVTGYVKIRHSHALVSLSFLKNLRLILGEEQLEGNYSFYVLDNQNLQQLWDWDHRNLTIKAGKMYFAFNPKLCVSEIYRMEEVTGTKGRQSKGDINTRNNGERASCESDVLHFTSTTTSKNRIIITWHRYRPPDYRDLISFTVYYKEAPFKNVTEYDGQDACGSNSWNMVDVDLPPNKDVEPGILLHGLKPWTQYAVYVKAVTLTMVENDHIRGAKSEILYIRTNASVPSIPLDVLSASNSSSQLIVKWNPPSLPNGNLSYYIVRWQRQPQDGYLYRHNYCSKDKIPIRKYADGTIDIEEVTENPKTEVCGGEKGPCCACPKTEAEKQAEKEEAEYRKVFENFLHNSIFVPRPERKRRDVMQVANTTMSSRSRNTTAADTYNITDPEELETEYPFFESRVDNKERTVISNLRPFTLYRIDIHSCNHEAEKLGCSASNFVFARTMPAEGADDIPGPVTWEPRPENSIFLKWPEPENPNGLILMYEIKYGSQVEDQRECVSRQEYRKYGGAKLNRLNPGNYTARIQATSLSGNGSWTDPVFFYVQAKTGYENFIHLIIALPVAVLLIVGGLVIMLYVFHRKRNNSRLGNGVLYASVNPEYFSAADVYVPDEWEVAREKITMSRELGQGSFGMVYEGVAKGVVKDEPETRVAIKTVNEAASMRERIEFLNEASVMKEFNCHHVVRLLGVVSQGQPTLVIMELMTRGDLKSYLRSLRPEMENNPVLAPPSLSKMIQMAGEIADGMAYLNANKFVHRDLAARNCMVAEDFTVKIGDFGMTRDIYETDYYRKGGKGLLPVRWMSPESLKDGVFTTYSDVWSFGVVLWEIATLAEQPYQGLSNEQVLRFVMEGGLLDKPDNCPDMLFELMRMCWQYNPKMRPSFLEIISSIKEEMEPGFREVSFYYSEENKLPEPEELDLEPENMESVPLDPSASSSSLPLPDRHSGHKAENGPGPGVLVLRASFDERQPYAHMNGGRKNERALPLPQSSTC
T2 sequence (P06213 979-1382): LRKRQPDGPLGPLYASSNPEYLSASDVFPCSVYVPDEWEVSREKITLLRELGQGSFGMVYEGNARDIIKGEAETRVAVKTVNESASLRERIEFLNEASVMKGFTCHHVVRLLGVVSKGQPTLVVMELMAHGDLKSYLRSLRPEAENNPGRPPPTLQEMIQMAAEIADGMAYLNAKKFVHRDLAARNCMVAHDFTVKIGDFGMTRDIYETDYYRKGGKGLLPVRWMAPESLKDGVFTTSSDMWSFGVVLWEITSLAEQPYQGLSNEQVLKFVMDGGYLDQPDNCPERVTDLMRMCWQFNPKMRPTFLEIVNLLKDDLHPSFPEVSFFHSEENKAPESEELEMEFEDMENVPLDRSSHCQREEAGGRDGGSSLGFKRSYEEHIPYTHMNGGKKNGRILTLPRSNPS
T1 sequence (P08069 957-1367): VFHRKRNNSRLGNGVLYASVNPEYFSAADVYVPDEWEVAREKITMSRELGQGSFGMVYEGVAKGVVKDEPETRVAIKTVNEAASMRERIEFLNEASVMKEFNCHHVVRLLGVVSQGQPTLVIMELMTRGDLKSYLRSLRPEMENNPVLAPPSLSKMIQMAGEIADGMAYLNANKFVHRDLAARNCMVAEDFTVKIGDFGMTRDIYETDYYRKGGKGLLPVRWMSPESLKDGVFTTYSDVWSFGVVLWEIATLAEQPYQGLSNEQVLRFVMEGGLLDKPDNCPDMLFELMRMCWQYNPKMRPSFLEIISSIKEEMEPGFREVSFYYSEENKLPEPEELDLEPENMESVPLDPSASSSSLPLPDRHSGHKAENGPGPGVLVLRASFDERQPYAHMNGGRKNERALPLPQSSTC
Chain of ALK (Q9UM73 19-1620): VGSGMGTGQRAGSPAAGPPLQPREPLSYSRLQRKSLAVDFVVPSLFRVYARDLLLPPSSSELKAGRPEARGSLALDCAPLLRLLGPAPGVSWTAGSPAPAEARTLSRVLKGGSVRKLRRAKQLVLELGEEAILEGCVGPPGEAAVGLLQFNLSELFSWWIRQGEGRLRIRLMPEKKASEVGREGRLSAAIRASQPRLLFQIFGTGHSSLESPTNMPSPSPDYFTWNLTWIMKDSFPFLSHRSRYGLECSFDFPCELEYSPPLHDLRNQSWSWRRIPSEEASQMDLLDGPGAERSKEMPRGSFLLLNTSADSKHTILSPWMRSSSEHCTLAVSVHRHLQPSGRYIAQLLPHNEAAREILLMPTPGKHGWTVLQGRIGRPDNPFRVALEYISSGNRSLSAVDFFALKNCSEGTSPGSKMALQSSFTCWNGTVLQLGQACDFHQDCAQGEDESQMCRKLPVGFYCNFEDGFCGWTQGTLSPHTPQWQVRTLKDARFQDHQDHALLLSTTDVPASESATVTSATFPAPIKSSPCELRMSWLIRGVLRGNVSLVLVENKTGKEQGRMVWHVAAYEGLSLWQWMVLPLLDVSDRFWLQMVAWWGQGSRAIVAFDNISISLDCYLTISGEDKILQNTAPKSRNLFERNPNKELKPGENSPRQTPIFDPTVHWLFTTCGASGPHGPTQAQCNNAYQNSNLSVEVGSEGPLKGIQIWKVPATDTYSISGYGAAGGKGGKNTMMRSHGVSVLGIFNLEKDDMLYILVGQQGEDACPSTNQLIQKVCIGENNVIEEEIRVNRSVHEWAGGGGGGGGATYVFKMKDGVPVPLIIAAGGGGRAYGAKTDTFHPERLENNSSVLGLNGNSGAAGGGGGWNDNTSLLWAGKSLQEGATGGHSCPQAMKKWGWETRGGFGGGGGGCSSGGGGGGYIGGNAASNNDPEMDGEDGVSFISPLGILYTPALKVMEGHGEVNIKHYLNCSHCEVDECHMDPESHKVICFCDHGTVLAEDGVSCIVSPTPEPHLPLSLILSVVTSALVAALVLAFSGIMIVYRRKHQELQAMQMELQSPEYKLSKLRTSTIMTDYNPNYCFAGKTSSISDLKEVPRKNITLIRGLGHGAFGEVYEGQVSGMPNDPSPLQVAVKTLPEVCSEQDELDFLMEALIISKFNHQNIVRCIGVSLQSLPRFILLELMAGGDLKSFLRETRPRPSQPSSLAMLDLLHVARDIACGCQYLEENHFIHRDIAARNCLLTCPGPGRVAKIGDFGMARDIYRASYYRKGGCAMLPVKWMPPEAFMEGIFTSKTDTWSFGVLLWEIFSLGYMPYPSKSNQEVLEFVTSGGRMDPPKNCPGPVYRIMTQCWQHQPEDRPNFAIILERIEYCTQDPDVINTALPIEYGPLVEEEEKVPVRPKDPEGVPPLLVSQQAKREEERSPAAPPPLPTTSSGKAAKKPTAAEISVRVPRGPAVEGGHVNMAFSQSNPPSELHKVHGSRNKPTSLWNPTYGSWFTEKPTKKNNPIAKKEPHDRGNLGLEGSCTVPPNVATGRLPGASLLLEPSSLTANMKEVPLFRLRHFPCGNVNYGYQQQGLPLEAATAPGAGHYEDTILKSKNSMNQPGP

Row | IC50 [1] | IC50 [2] | IC50 [3] | IC50 [4] | SMILES
1 | 1.26 to 3.98 nM | 0.251 to 1 nM | < 100 nM | – | CCCN1CCN(c2ccc(Nc3nc(Nc4ccccc4C(N)=O)c4cc[nH]c4n3)c(OC)c2)CC1 [Example 8, 2-[(2-{[2-(methyloxy)-4-(4-propyl-1-piperazinyl)phenyl]amino}-1H-pyrrolo[2,3-d]pyrimidin-4-yl)amino]benzamide]
2 | 1.26 to 3.98 nM | – | 100 to 500 nM | 1.26 to 3.98 nM | CCCN1CCC=C(c2ccc(Nc3nc(Nc4cccc(F)c4C(N)=O)c4cc[nH]c4n3)c(C)c2)C1 [Example 40, 2-fluoro-6-[(2-{[2-methyl-4-(1-propyl-1,2,5,6-tetrahydro-3-pyridinyl)phenyl]amino}-1H-pyrrolo[2,3-d]pyrimidin-4-yl)amino]benzamide]
3 | – | 0.251 to 1 nM | < 100 nM | 0.251 to 1 nM | COc1cc(C2CCCN(C)C2)ccc1Nc1nc(Nc2ccc(F)cc2C(N)=O)c2cc[nH]c2n1 (stereo not drawn) [Example 56, 5-fluoro-2-[(2-{[2-(methyloxy)-4-(1-methyl-3-piperidinyl)phenyl]amino}-1H-pyrrolo[2,3-d]pyrimidin-4-yl)amino]benzamide]
4 | 5.01 to 200 nM | 5.01 to 158 nM | – | 5.01 to 200 nM | CNC(=O)c1c(F)cccc1Nc1nc(Nc2cc3c(cc2OC)CCN3C(=O)[C@@H]2CCCN2C)nc2[nH]ccc12 [Example 128, 2-fluoro-N-methyl-6-[(2-{[5-(methyloxy)-1-(1-methyl-L-prolyl)-2,3-dihydro-1H-indol-6-yl]amino}-1H-pyrrolo[2,3-d]pyrimidin-4-yl)amino]benzamide]
5 | 5.01 to 200 nM | 5.01 to 158 nM | – | 5.01 to 200 nM | CNC(=O)c1c(F)cccc1Nc1nc(Nc2cc3c(cc2OC)CCN3C(=O)[C@H]2CCCN2C)nc2[nH]ccc12 [Example 129, 2-fluoro-N-methyl-6-[(2-{[5-(methyloxy)-1-(1-methyl-D-prolyl)-2,3-dihydro-1H-indol-6-yl]amino}-1H-pyrrolo[2,3-d]pyrimidin-4-yl)amino]benzamide]
6 | 5.01 to 200 nM | 5.01 to 158 nM | – | 5.01 to 200 nM | CNC(=O)c1c(F)cccc1Nc1nc(Nc2ccc3c(c2)N(C(=O)CN(C)C)CC3)nc2[nH]ccc12 [Example 130, 2-[(2-{[1-(N,N-dimethylglycyl)-2,3-dihydro-1H-indol-6-yl]amino}-1H-pyrrolo[2,3-d]pyrimidin-4-yl)amino]-6-fluoro-N-methylbenzamide]
7 | 1.26 to 3.98 nM | 1.26 to 3.98 nM | – | 1.26 to 3.98 nM | CNC(=O)c1c(F)cccc1Nc1nc(Nc2cc3c(cc2Cl)CCN3C(=O)CN(C)C)nc2[nH]ccc12 [Example 131, 2-[(2-{[5-chloro-1-(N,N-dimethylglycyl)-2,3-dihydro-1H-indol-6-yl]amino}-1H-pyrrolo[2,3-d]pyrimidin-4-yl)amino]-6-fluoro-N-methylbenzamide]
8 | 1.26 to 3.98 nM | 1.26 to 3.98 nM | – | 1.26 to 3.98 nM | CCOc1cc2c(cc1Nc1nc(Nc3cccc(F)c3C(=O)NC)c3cc[nH]c3n1)N(C(=O)CN(C)C)CCC2 [Example 133, 2-[(2-{[1-(N,N-dimethylglycyl)-6-(ethyloxy)-1,2,3,4-tetrahydro-7-quinolinyl]amino}-1H-pyrrolo[2,3-d]pyrimidin-4-yl)amino]-6-fluoro-N-methylbenzamide]
9 | 1.26 to 3.98 nM | 1.26 to 3.98 nM | – | 1.26 to 3.98 nM and 5.01 to 200 nM | CNC(=O)c1c(F)cccc1Nc1nc(Nc2cc3c(cc2OC)CCN3C(=O)CN(C)CCOC)nc2[nH]ccc12 [Example 169, 2-fluoro-N-methyl-6-[(2-{[1-{N-methyl-N-[2-(methyloxy)ethyl]glycyl}-5-(methyloxy)-2,3-dihydro-1H-indol-6-yl]amino}-1H-pyrrolo[2,3-d]pyrimidin-4-yl)amino]benzamide]
10 | 0.251 to 1 nM | 0.251 to 1 nM | – | 1.26 to 3.98 nM | COCCN(C)CC(=O)N1CCc2cc(OC)c(Nc3nc(Nc4cccc(F)c4C(N)=O)c4cc[nH]c4n3)cc21 [Example 170, 2-fluoro-6-[(2-{[1-{N-methyl-N-[2-(methyloxy)ethyl]glycyl}-5-(methyloxy)-2,3-dihydro-1H-indol-6-yl]amino}-1H-pyrrolo[2,3-d]pyrimidin-4-yl)amino]benzamide]
11 | 0.251 to 1 nM | 0.251 to 1 nM | – | 0.251 to 1 nM | COc1cc2c(cc1Nc1nc(Nc3cccc4c3C(=O)NC4)c3cc[nH]c3n1)N(C(=O)CN1CCCC1)CCC2 [Example 201, 7-[(2-{[6-(methyloxy)-1-(1-pyrrolidinylacetyl)-1,2,3,4-tetrahydro-7-quinolinyl]amino}-1H-pyrrolo[2,3-d]pyrimidin-4-yl)amino]-2,3-dihydro-1H-isoindol-1-one]
12 | 5.01 to 200 nM | 1.26 to 3.98 nM | – | 0.251 to 1 nM | CNC(=O)c1c(F)cccc1Nc1nc(Nc2cc3c(cc2OC)CCN(CCF)C3)nc2[nH]ccc12 [Example 234, 2-fluoro-6-[(2-{[2-(2-fluoroethyl)-6-(methyloxy)-1,2,3,4-tetrahydro-7-isoquinolinyl]amino}-1H-pyrrolo[2,3-d]pyrimidin-4-yl)amino]-N-methylbenzamide]
